Laboratory results published in patent US6362369B1, “Phthalic acid diamide derivatives fluorine-containing aniline compounds as starting material, agricultural and horticultural insecticides, and a method for application of the insecticides” (Nihon Nohyaku Co., Ltd., priority 1997, dated 2002).

Experiments:
Type in all cases: in vivo
[1] = test system: common cutworm (Spodoptera Litura); assay: Insecticidal effect on common cutworm (Test Example 2); conditions: 500 ppm; cabbage leaf immersed; second-instar larvae of common cutworm; eight days after inoculation; 25° C.
Summary of the method: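 Air-dried treated material was placed in a closed dish with second-instar larvae and held at 25° C. Dead and live insects were counted eight days after inoculation, and mortality was calculated and scored against a fixed insecticidal-effect criterion. Three replicate groups of 10 insects were used.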

[2] = test system: diamondback moth (Plutella xylostella); assay: Insecticidal effect on diamondback moth (Test Example 1); conditions: diamondback moth; judged by the mortality criterion of Test Example 1
Summary of the method: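 Triplicate groups of 10 insects: eggs laid on Chinese cabbage seedling by adults, seedling immersed then air-dried, kept at 25° C. Day-6 hatch counts gave mortality, rated by criterion.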

[3] = test system: rice leafroller (Cnaphalocrocis medinalis); assay: Insecticidal effect on rice leafroller (Test Example 3); conditions: 500 ppm; rice lamina immersed; third-instar larvae of rice leafroller; four days after inoculation; 25° C., humidity 70%
Summary of the method: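 Insecticidal effect is judged by a predefined criterion from dead/alive counts four days after infesting air-dried lamina with third-instar larvae, kept on moistened filter paper at 25° C, 70% humidity.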

| Structure (SMILES) | Insecticidal effect, Test Example 2 [1] | Insecticidal effect, Test Example 1 [2] | Insecticidal effect, Test Example 3 [3] |
| --- | --- | --- | --- |
| CC(C)NC(=O)c1c(Cl)cccc1C(=O)Nc1ccc(C(F)(C(F)(F)F)C(F)(F)F)cc1 [compound 89] | B (99-90) | A (100) | A (100) |
| CC(C)NC(=O)c1c(Cl)cccc1C(=O)Nc1ccc(C(F)(F)C(F)(F)C(F)(F)F)cc1 [compound 90] | A (100) | A (100) | B (99-90) |
| CC(C)NC(=O)c1c(Cl)cccc1C(=O)Nc1ccc(C(F)(F)C(F)(F)C(F)(F)C(F)(F)F)cc1 [compound 91] | A (100) | A (100) | A (100) |
| CC(C)NC(=O)c1c(Cl)cccc1C(=O)Nc1ccc(OC(F)(F)C(F)OC(F)(F)C(F)(F)C(F)(F)F)cc1 (stereo not drawn) [compound 93] | A (100) | A (100) | A (100) |
| CC(C)NC(=O)c1c(Cl)cccc1C(=O)Nc1cccc([S+]([O-])C(F)(F)F)c1 (stereo not drawn) [compound 100] | A (100) | A (100) | A (100) |
| CC(C)NC(=O)c1c(Cl)cccc1C(=O)Nc1ccc(SC(F)(F)C(F)F)cc1 [compound 102] | D (79-50) | A (100) | A (100) |
| CC(C)NC(=O)c1c(Cl)cccc1C(=O)Nc1ccc(SC(F)(F)C(F)(F)Br)cc1 [compound 103] | C (89-80) | A (100) | A (100) |
| CC(=O)c1ccc(NC(=O)c2cccc(Cl)c2C(=O)NC(C)C)cc1 [compound 109] | A (100) | A (100) | C (89-80) |
| CC(C)NC(=O)c1c(Cl)cccc1C(=O)Nc1cccc(Cl)c1Cl [compound 111] | C (89-80) | A (100) | B (99-90) |
| CC(C)NC(=O)c1c(Cl)cccc1C(=O)Nc1ccc(Cl)cc1Cl [compound 112] | A (100) | A (100) | A (100) |
| CC(C)NC(=O)c1c(Cl)cccc1C(=O)Nc1ccc(F)cc1F [compound 113] | B (99-90) | A (100) | A (100) |
| CC(C)NC(=O)c1c(Cl)cccc1C(=O)Nc1ccc(F)cc1Cl [compound 114] | A (100) | A (100) | A (100) |
| CC(C)NC(=O)c1c(Cl)cccc1C(=O)Nc1ccc(Cl)cc1F [compound 115] | C (89-80) | A (100) | A (100) |
| CC(C)NC(=O)c1c(Cl)cccc1C(=O)Nc1ccc(F)c(F)c1F [compound 116] | D (79-50) | A (100) | A (100) |
| Cc1cccc(NC(=O)c2cccc(Cl)c2C(=O)NC(C)C)c1C [compound 117] | A (100) | A (100) | A (100) |
| Cc1c(Cl)cccc1NC(=O)c1cccc(Cl)c1C(=O)NC(C)C [compound 118] | A (100) | A (100) | A (100) |
| Cc1cc(Cl)ccc1NC(=O)c1cccc(Cl)c1C(=O)NC(C)C [compound 119] | A (100) | A (100) | A (100) |
| Cc1ccc(Cl)cc1NC(=O)c1cccc(Cl)c1C(=O)NC(C)C [compound 120] | D (79-50) | A (100) | A (100) |
| Cc1cc(Br)ccc1NC(=O)c1cccc(Cl)c1C(=O)NC(C)C [compound 121] | A (100) | A (100) | A (100) |
| Cc1cc(I)ccc1NC(=O)c1cccc(Cl)c1C(=O)NC(C)C [compound 122] | A (100) | A (100) | A (100) |
| COc1ccc(NC(=O)c2cccc(Cl)c2C(=O)NC(C)C)c(C)c1C [compound 124] | A (100) | A (100) | A (100) |

| Structure (SMILES) | Insecticidal effect, Test Example 2 [1] | Insecticidal effect, Test Example 1 [2] | Insecticidal effect, Test Example 3 [3] |
| --- | --- | --- | --- |
| CC(C)NC(=O)c1c(Cl)cccc1C(=O)Nc1ccc(C(F)(F)F)cc1Cl [compound 125] | B (99-90) | A (100) | A (100) |
| CC(C)NC(=O)c1c(Cl)cccc1C(=O)Nc1ccc(C(F)(C(F)(F)F)C(F)(F)F)cc1Cl [compound 126] | A (100) | A (100) | A (100) |
| Cc1cc(C(F)(F)F)ccc1NC(=O)c1cccc(Cl)c1C(=O)NC(C)C [compound 127] | A (100) | A (100) | A (100) |
| Cc1cc(C(F)(F)C(F)(F)F)ccc1NC(=O)c1cccc(Cl)c1C(=O)NC(C)C [compound 128] | D (79-50) | A (100) | A (100) |
| Cc1cc(OC(F)(F)C(Cl)(Cl)Cl)ccc1NC(=O)c1cccc(Cl)c1C(=O)NC(C)C [compound 129] | A (100) | A (100) | A (100) |
| Cc1cc(C(F)(F)C(F)(F)C(F)(F)F)ccc1NC(=O)c1cccc(Cl)c1C(=O)NC(C)C [compound 130] | A (100) | A (100) | A (100) |
| Cc1cc(C(F)(F)C(F)(F)C(F)(F)C(F)(F)F)ccc1NC(=O)c1cccc(Cl)c1C(=O)NC(C)C [compound 132] | A (100) | A (100) | A (100) |
| Cc1cc(C(F)(F)C(F)(F)C(F)(F)C(F)(F)C(F)(F)C(F)(F)F)ccc1NC(=O)c1cccc(Cl)c1C(=O)NC(C)C [compound 133] | A (100) | A (100) | A (100) |
| CC(C)NC(=O)c1c(Cl)cccc1C(=O)Nc1ccc(OC(F)(F)F)cc1Cl [compound 135] | A (100) | A (100) | A (100) |
| CC(C)NC(=O)c1c(Cl)cccc1C(=O)Nc1ccc(OC(F)(F)F)cc1Br [compound 136] | A (100) | A (100) | A (100) |
| Cc1cc(OC(F)F)ccc1NC(=O)c1cccc(Cl)c1C(=O)NC(C)C [compound 138] | A (100) | A (100) | A (100) |
| Cc1cc(OC(F)(F)F)ccc1NC(=O)c1cccc(Cl)c1C(=O)NC(C)C [compound 139] | A (100) | A (100) | A (100) |
| Cc1cc(OC(F)(F)Br)ccc1NC(=O)c1cccc(Cl)c1C(=O)NC(C)C [compound 140] | A (100) | A (100) | A (100) |
| Cc1c(NC(=O)c2cccc(Cl)c2C(=O)NC(C)C)cccc1OC(F)(F)C(F)Cl (stereo not drawn) [compound 142] | A (100) | A (100) | B (99-90) |
| Cc1cc(OC(F)(F)C(F)Cl)ccc1NC(=O)c1cccc(Cl)c1C(=O)NC(C)C (stereo not drawn) [compound 143] | A (100) | A (100) | A (100) |
| Cc1cc(OC(F)(F)C(F)(F)Br)ccc1NC(=O)c1cccc(Cl)c1C(=O)NC(C)C [compound 144] | A (100) | A (100) | A (100) |
| Cc1cc(OC(F)(F)C(F)(Cl)Cl)ccc1NC(=O)c1cccc(Cl)c1C(=O)NC(C)C [compound 145] | A (100) | A (100) | A (100) |
| Cc1cc(OC(F)(F)C(F)C(F)(F)F)ccc1NC(=O)c1cccc(Cl)c1C(=O)NC(C)C (stereo not drawn) [compound 146] | A (100) | A (100) | A (100) |
| Cc1cc(OC(F)(F)C(F)(Br)C(F)(F)F)ccc1NC(=O)c1cccc(Cl)c1C(=O)NC(C)C (stereo not drawn) [compound 148] | A (100) | A (100) | A (100) |
| Cc1cc(OC(F)(F)C(F)OC(F)(F)F)ccc1NC(=O)c1cccc(Cl)c1C(=O)NC(C)C (stereo not drawn) [compound 149] | A (100) | A (100) | A (100) |
